Non-standard residues stand in square brackets, D forms with d. pY = N[C@@H](Cc1ccc(OP(=O)(O)O)cc1)C(=O)O; pT = C[C@@H](OP(=O)(O)O)[C@H](N)C(=O)O
Key:
[1] = test system: DCIR expression in CD4+ T cells; test: HIV-1-mediated induction of DCIR expression in CD4+ T cells (flow cytometry); format: cell-based, human; settings: cells pre-treated before virus infection, 3 days; result in words
Experimental: Mitogen-activated CD4^+ T cells (1×10^6) were first either left untreated or treated for 1 h with the caspase inhibitor Z-VAD-FMK (50 nM), after which HIV-1 was added (100 ng of p24), where indicated. DCIR expression was monitored 3 days later by flow cytometry. Data shown represent the means±SD of triplicate samples from three independent experiments.
Cells (1×10^6) were first either left untreated or treated for 1 h with NAC, after which HIV-1 (100 ng of p24) was added. DCIR expression was monitored 3 days later by flow cytometry. Expression of DCIR is shown as a dotted line, whereas the continuous line represents staining obtained with an isotype-matched irrelevant control Ab. Data shown correspond to a single experiment representative of 3 independent experiments.
Cell surface expression of DCIR was monitored by flow cytometric analysis (Epics ELITE ESP, Coulter Electronics, Burlington, Canada). Cells (1×10^6 cells) were incubated for 30 min with a pool of human serum to block the unspecific binding. After washing, the cells were incubated with PE-labeled anti-DCIR (0.25 μg) for 45 min at 4° C. and then washed twice with PBS and 0.5% BSA. Non-specific staining was determined by using an isotype-matched irrelevant control antibody. After two final washes with PBS, cells were fixed in 2% paraformaldehyde for 30 min and analyzed.

[2] = test system: human primary CD4+ T cells; test: Apoptosis of HIV-1-infected and bystander CD4+ T cells (FITC-VAD-FMK staining); format: cell-based; settings: NL4-3-IRES-HSA infected CD4+ T cells; data not shown
Source text: The HIV-1-mediated induction of apoptosis in both infected and bystander CD4^+ T cells is a well-described phenomenon. The peak of apoptosis is observed usually after 2 to 3 days, the same time frame in which we detected the HIV-1-dependent induction of DCIR. Therefore, we next assessed whether there might be a connection between the virus-induced DCIR expression and apoptosis. We initially assessed the ability of NL4-3-IRES-HSA reporter virus to drive apoptosis in CD4^+ T cells using FITC-VAD-FMK staining. This fluorochrome-labeled pan-caspase inhibitor is a specific and convenient-to-use marker of apoptotic cells, which can identify very early events of apoptosis associated with caspase activation (i.e. pre-apoptotic cells). Our studies indicate that NL4-3-IRES-HSA virions can potently mediate apoptosis in human primary CD4^+ T cells (data not shown). […] To establish a link between DCIR expression and apoptosis following HIV-1 infection, we carried out a series of investigations with the broad-spectrum caspase inhibitor Z-VAD-FMK [94].

[3] = test system: HIV-1 NL4-3 in Raji-CD4-DCIR cells; test: HIV-1 infection assay in Raji-CD4-DCIR cells, real-time PCR of spliced Tat mRNA; format: cell-based; settings: Table 3, pharmacological inhibitors; symbols not defined
Experimental: FIG. 6A: Raji-CD4 and Raji-CD4-DCIR were either left untreated or preincubated with tyrosine phosphatase inhibitor SSG (100 μg/ml); Syk inhibitor piceatannol (10 μM); Src inhibitor PP2 (10 μM); classical PKC inhibitor Gö6976 (1 μM); MAPK p38 inhibitor SB203580 (2 μM), MAP kinase inhibitor PD98059 ([…]) for 10 min. FIG. 6B: Raji-CD4 and Raji-CD4-DCIR were treated with Oligofectamine and then either left untreated or exposed to a sense or an antisense oligonucleotide against different signalling proteins during 5 hours. Next, cells were exposed to NL4-3 for 24 hours. Virus infection was determined by real-time PCR of spliced Tat mRNA. Data shown correspond to the means±SD of triplicate samples from three independent experiments. The asterisk denotes statistically significant data (*, P<0.05; ***, P<0.001).
For the infection assay performed before measuring Tat mRNA, Raji-CD4 and Raji-CD4-DCIR cells were treated with the indicated inhibitor or transfected with the indicated oligonucleotide (as described below). Cells were then pulsed with NL4-3 during 24 hours. […] The expression level of Tat mRNA was measured by real-time PCR, as described below.
Expression levels of TAT splice transcripts were determined using a Rotor-Gene™ system (Corbett Life Science). […] After elution, the amount and quality of RNA was assessed by measuring the absorbance at 260 and 280 nm. […]

[4] = test system: HIV-1 NL4-3 in Raji-CD4-DCIR cells; test: HIV-1 binding/entry assay in Raji-CD4-DCIR cells (cell-associated p24 ELISA); format: cell-based; settings: for Binding/entry: Table 3, pharmacological inhibitors, symbols not defined; for HIV-1 binding/entry: cells pretreated with inhibitor 10 min, pulsed with NL4-3 60 min, result in words
Experimental: (§1) FIG. 2A: Raji-CD4 and Raji-CD4-DCIR cells were either left untreated or treated with SSG (100 μg/ml) for 10 min at 37° C. Thereafter, cells were pulsed with NL4-3 for 60 min. After three washes with PBS to remove non-adsorbed virus, cell-associated virus was quantified by measuring the p24 content. Data shown correspond to the means±SD of triplicate samples from three combined independent experiments. The asterisk denotes statistically significant data (*, P<0.05; **, P<0.01). FIG. 2B: Cells were either left untransfected or transfected with a sense or antisense oligonucleotide specific for the signalling protein of interest. Next, cells were pulsed with NL4-3 for 60 min. After three washes with PBS to eliminate unbound virus, cell-associated virus was quantified by measuring the p24 content. Data shown correspond to the means±SD of triplicate samples from three combined independent experiments. The asterisk denotes statistically significant data (*, P<0.05; **, P<0.01). After gene silencing, the diminution of the targeted protein was verified by western blots, provided as an insert for each graph.
Where indicated, parental Raji-CD4 cells (DCIR-negative) or Raji-CD4-DCIR transfectants (1×10^6) were pretreated with the indicated amount of a pharmacological inhibitor for 10 min or transfected with sense or antisense oligonucleotides as described below. Cells were then pulsed with NL4-3 (100 ng of p24) for 60 min at 37° C. Next the virus-cell mixture was washed 3 times with PBS to remove unbound virus and resuspended in PBS containing 1% BSA. To assess binding/entry, the p24 content was determined by our in-house ELISA assay^33.
Raji-CD4 and Raji-CD4-DCIR cells (1×10^6 cells) were washed with OptiMEM (Invitrogen Life Technologies) without serum and antibiotics. The phosphorothioate oligodeoxynucleotides (Listed in Table 1) (Invitrogen Life Technologies) were transfected at a final concentration of 10 μM/well^35 using Oligofectamine according to the manufacturer's instructions (Invitrogen Life Technologies). Silencing efficiency was monitored by western blot analysis.

[5] = test system: HIV-1 NL4-3 in Raji-CD4 cells; test: HIV-1 binding/entry assay in parental Raji-CD4 cells (DCIR-negative); format: cell-based; settings: pretreated with inhibitor 10 min, result in words
Experimental: as §1, with “After gene silencing, the diminution of the targeted protein was verified by western blots, provided as an insert for each graph.” left out
Where indicated, parental Raji-CD4 cells (DCIR-negative) or Raji-CD4-DCIR transfectants (1×10^6) were pretreated with the indicated amount of a pharmacological inhibitor for 10 min or transfected with sense or antisense oligonucleotides as described below. […] To assess binding/entry, the p24 content was determined by our in-house ELISA assay^33.

[6] = test system: HIV-1 NL4-3balenv in IM-MDDCs; test: HIV-1 binding/entry in IM-MDDCs transfected with ITIM peptides (p24); format: cell-based; settings: peptides inserted with Pro-Ject, NL4-3balenv 60 min; result in words
Experimental: (§2) FIG. 7A: Raji-CD4 cells were transduced with a retroviral vector expressing either a wild-type form of DCIR, a T6F mutant of DCIR, or a Y7F mutant of DCIR. Surface expression level of DCIR was assessed by flow cytometry using a combination of PE-labelled anti-DCIR antibody (dotted lines) and a control isotype-matched antibody (continuous lines). […] FIG. 7B: For the virus binding/entry assay shown in the left panel, the indicated cell lines were exposed to NL4-3. For the infection assay shown in the right panel, the same cells were exposed to NL4-3 for 2 hours at 37° C., and then maintained in culture for 9 days. FIG. 7C: IM-MDDCs were treated with Pro-Ject only, with a control peptide or an ITIM peptide, either not phosphorylated or phosphorylated on the tyrosine or threonine residue, during 5 min at 37° C. Next, cells were pulsed with NL4-3balenv for 60 min at 37° C. and washed extensively before measuring the p24 content (left panel). […] Cell-free culture supernatants were quantified by measuring the p24 content. […]
(§3) For assessing binding/entry, IM-MDDCs (3×10^5 cells in a final volume of 300 μl) transfected with one of the ITIM peptides were exposed to NL4-3balenv (30 ng of p24) for 60 min at 37° C. […] The p24 content was determined by ELISA. As for susceptibility of IM-MDDCs to HIV-1 infection, it was assessed by initially exposing 3×10^5 cells to NL4-3balenv (30 ng) for 2 hours at 37° C. […]

[7] = test system: HIV-1 NL4-3balenv in IM-MDDCs; test: HIV-1 infection of IM-MDDCs transfected with ITIM peptides (p24 in supernatants); format: cell-based; settings: peptides inserted with Pro-Ject, NL4-3balenv 2 hours, culture up to 9 days; result in words
Experimental: as §2, §3

Molecule	Infection [3]	Binding/entry [4]	HIV-1 binding/entry [4]	virus binding/entry [6]	virus replication / infection [7]	further results
O=C1Nc2ccc(Cl)cc2[C@@](C#CC2CC2)(C(F)(F)F)O1 [EFV, efavirenz]	–	–	–	–	–	HIV-1-mediated DCIR expression [1]: reduced significantly; percentages of apoptotic cells in virus-infected and bystander cells [2]: significantly reduced
O=S(=O)(NCCNC/C=C/c1ccc(Br)cc1)c1cccc2cnccc12 [H89]	Ø	Ø	not participating	–	–	–
C/C(O)=C(\C#N)C(=O)Nc1cc(Br)ccc1Br [LFM-A13]	Ø	Ø	not involved	–	–	–
O.O.O.O.O.O.O.O.O.O=C([O-])[C@@H]1[O][Sb]2([O-])([O][Sb]34([OH])[O][C@H]([C@H](O)CO)[C@H]([O]3)[C@H](C(=O)[O-])[O]4)[O][C@H]([C@H](O)CO)[C@@H]1[O]2.[Na+].[Na+].[Na+] [SSG, sodium stibogluconate]	–	–	decreases	–	–	HIV-1 binding/entry [5]: no similar effect
TAMRA-EIT(PO3H2)YAEVRFKNEFKS-OH ({TAMRA}-EI[pT]YAEVRFKNEFKS-OH) [ITIM peptide phosphorylated on threonine]	–	–	–	decrease	decrease	–
TAMRA-EITY(PO3H2)AEVRFKNES-OH ({TAMRA}-EIT[pY]AEVRFKNES-OH) [ITIM peptide phosphorylated on tyrosine]	–	–	–	decrease	decrease	–

Source: US9320773B2, “Compounds and therapeutic applications related to inhibition of dendritic cell immunoreceptor (DCIR) activity and signaling events” (priority 2010, dated 2016)
